What was measured:
Experiment in all cases: Test A pre-/postemergence plant response
Assay type in all cases: in vivo
[1] = system: barnyardgrass (Echinochloa crus-galli)
Text: (§1) Seeds of barnyardgrass (Echinochloa crus-galli), large crabgrass (Digitaria sanguinalis), giant foxtail (Setaria faberii), morningglory (Ipomoea spp.), pigweed (Amaranthus retroflexus), velvetleaf (Abutilon theophrasti), wheat (Triticum aestivum) and corn (Zea mays) were planted into a blend of loam soil and sand and treated preemergence with a directed soil spray using test chemicals formulated in a non-phytotoxic solvent mixture which included a surfactant. At the same time these species were also treated with postemergence applications of test compounds formulated in the same manner.
(§2) Plants ranged in height from two to ten cm and were in the one- to two-leaf stage for the postemergence treatment. Treated plants and untreated controls were maintained in a greenhouse for approximately ten days, after which time all treated plants were compared to untreated controls and visually evaluated for injury. Plant response ratings, summarized in Table A, are based on a 0 to 100 scale where 0 is no effect and 100 is complete control. A dash (-) response means no test result.

corn (Zea mays) = system: corn (Zea mays)
Text: as §1, §2

[2] = system: giant foxtail (Setaria faberii)
Text: as §1, §2

[3] = system: large crabgrass (Digitaria sanguinalis)
Text: as §1, §2

[4] = system: morningglory (Ipomoea spp.)
Text: as §1, §2

[5] = system: pigweed (Amaranthus retroflexus)
Text: as §1, §2

[6] = system: velvetleaf (Abutilon theophrasti); conditions: for Velvetleaf plant response rating: visual injury, 0 to 100 scale (0 no effect, 100 complete control)
Text: as §1, §2

[7] = system: wheat (Triticum aestivum); conditions: for Wheat plant response rating: visual injury, 0 to 100 scale (0 no effect, 100 complete control)
Text: as §1, §2

[8] = Postemergence, 125 g ai/ha, 0 to 100 scale where 0 is no effect and 100 is complete control
[9] = Postemergence, 500 g ai/ha, visual injury, 0 to 100 scale (0 no effect, 100 complete control), approx. ten days
[10] = Preemergence, 125 g ai/ha, 0 to 100 scale, 0 = no effect, 100 = complete control
[11] = Preemergence, 500 g ai/ha, 0 to 100 scale, 0 = no effect, 100 = complete control
[12] = Postemergence, 500 g ai/ha, approx. ten days
[13] = Postemergence, 500 g ai/ha, 0 to 100 scale, 0 = no effect, 100 = complete control, approx. ten days
[14] = Preemergence, 500 g ai/ha, visual injury, 0 to 100 scale (0 no effect, 100 complete control), approx. ten days

Row | Compound | Plant response rating, Barnyardgrass [1, 8] | Barnyardgrass plant response rating [1, 9] | Plant response rating, Barnyardgrass [1, 10] | Plant response rating, Barnyardgrass [1, 11] | Plant response rating, Corn (corn (Zea mays); [8]) | Plant response rating, Corn (corn (Zea mays); [10]) | Plant response rating, Foxtail, Giant [2, 8] | Plant response rating, Foxtail, Giant [2, 10] | Plant response rating, Crabgrass, Large [3, 8] | Plant response rating, Crabgrass, Large [3, 10] | Plant response rating, Morningglory [4, 8] | Plant response rating, Morningglory [4, 10] | Plant response rating, Pigweed [5, 8] | Plant response rating, Pigweed [5, 10] | Plant response rating, Velvetleaf [6, 8] | Plant response rating, Velvetleaf [6, 10] | Plant response rating, Velvetleaf [6, 11] | Plant response rating, Wheat [7, 8] | Plant response rating, Wheat [7, 10] | Plant response rating, Wheat [7, 11] | further results
1 | Cc1ccc(-n2c(-c3cccc(F)c3)ncc(C(=O)C3=C(O)CCCC3=O)c2=O)cc1 [Compound 202] | 90 | 100 | 20 | 100 | 10 | 20 | 80 | 50 | 70 | 50 | 100 | 0 | 100 | 90 | 100 | 70 | 100 | 20 | 0 | 40 | Corn plant response rating (corn (Zea mays); [9]): 30; Plant response rating, Corn (corn (Zea mays); [11]): 40; Foxtail, Giant plant response rating [2, 9]: 100; Plant response rating, Foxtail, Giant [2, 11]: 100; Crabgrass, Large plant response rating [3, 9]: 100; Plant response rating, Crabgrass, Large [3, 11]: 100; Morningglory plant response rating [4, 9]: 100; Plant response rating, Morningglory [4, 11]: 100; Pigweed plant response rating [5, 9]: 100; Plant response rating, Pigweed [5, 11]: 100; Velvetleaf plant response rating [6, 12]: 100; Wheat plant response rating [7, 12]: 50
2 | CCCn1c(-c2ccc3ccccc3c2)ncc(C(=O)C2=C(O)CCCC2=O)c1=O [Compound 150] | 40 |  | 0 |  | 0 | 0 | 40 | 0 | 20 | 0 | 100 | 0 | 30 | 0 | 50 | 0 | 0 | 0 | 0 | 0 | Plant response rating, Barnyardgrass [1, 13]: 80; Plant response rating, Barnyardgrass [1, 14]: 0; Plant response rating, Corn (corn (Zea mays); [13]): 0; Plant response rating, Corn (corn (Zea mays); [14]): 0; Plant response rating, Foxtail, Giant [2, 13]: 70; Plant response rating, Foxtail, Giant [2, 14]: 0; Plant response rating, Crabgrass, Large [3, 13]: 50; Plant response rating, Crabgrass, Large [3, 14]: 10; Plant response rating, Morningglory [4, 13]: 100; Plant response rating, Morningglory [4, 14]: 0; Plant response rating, Pigweed [5, 13]: 60; Plant response rating, Pigweed [5, 14]: 0; Plant response rating, Velvetleaf [6, 13]: 90; Plant response rating, Wheat [7, 13]: 20
3 | O=C1CCCC(O)=C1C(=O)c1cnc(-c2ccccc2)n(C2CCCCCCCCCCC2)c1=O [Compound 165] | 0 | 80 | 0 | 0 | 0 | 0 | 20 | 0 | 20 | 0 | 50 |  | 80 | 0 | 100 | 0 | 0 | 0 | 0 | 0 | Corn plant response rating (corn (Zea mays); [9]): 30; Plant response rating, Corn (corn (Zea mays); [11]): 0; Foxtail, Giant plant response rating [2, 9]: 30; Plant response rating, Foxtail, Giant [2, 11]: 0; Crabgrass, Large plant response rating [3, 9]: 50; Plant response rating, Crabgrass, Large [3, 11]: 0; Morningglory plant response rating [4, 9]: 100; Plant response rating, Morningglory [4, 11]: 0; Pigweed plant response rating [5, 9]: 100; Plant response rating, Pigweed [5, 11]: 0; Velvetleaf plant response rating [6, 12]: 100; Wheat plant response rating [7, 12]: 0
4 | O=C1CCCC(O)=C1C(=O)c1cnc(-c2cc(F)c(F)c(F)c2)n(C2CCCCC2)c1=O [Compound 205] | 90 | 100 | 0 | 10 | 0 | 0 | 40 | 10 | 60 | 20 | 100 | 0 | 90 | 10 | 100 | 10 | 80 | 0 | 0 | 0 | Corn plant response rating (corn (Zea mays); [9]): 20; Plant response rating, Corn (corn (Zea mays); [11]): 0; Foxtail, Giant plant response rating [2, 9]: 90; Plant response rating, Foxtail, Giant [2, 11]: 80; Crabgrass, Large plant response rating [3, 9]: 90; Plant response rating, Crabgrass, Large [3, 11]: 90; Morningglory plant response rating [4, 9]: 100; Plant response rating, Morningglory [4, 11]: 60; Pigweed plant response rating [5, 9]: 100; Plant response rating, Pigweed [5, 11]: 90; Velvetleaf plant response rating [6, 12]: 100; Wheat plant response rating [7, 12]: 10
5 | CCCn1c(-c2ccc3c(c2)OCCO3)ncc(C(=O)C2=C(O)CCCC2=O)c1=O [Compound 149] | 70 |  | 20 |  | 0 | 0 | 60 | 10 | 40 | 30 | 100 | 0 | 70 | 80 | 100 | 40 | 70 | 20 | 0 | 20 | Plant response rating, Barnyardgrass [1, 13]: 90; Plant response rating, Barnyardgrass [1, 14]: 50; Plant response rating, Corn (corn (Zea mays); [13]): 30; Plant response rating, Corn (corn (Zea mays); [14]): 20; Plant response rating, Foxtail, Giant [2, 13]: 80; Plant response rating, Foxtail, Giant [2, 14]: 60; Plant response rating, Crabgrass, Large [3, 13]: 70; Plant response rating, Crabgrass, Large [3, 14]: 80; Plant response rating, Morningglory [4, 13]: 100; Plant response rating, Morningglory [4, 14]: 40; Plant response rating, Pigweed [5, 13]: 100; Plant response rating, Pigweed [5, 14]: 100; Plant response rating, Velvetleaf [6, 13]: 100; Plant response rating, Wheat [7, 13]: 50
